Measurements as given in the NIST ThermoML archive (doi:10.1016/j.jct.2015.04.029).

Columns and labels:
[1] = wn = mass fraction of the nth substance listed; conditions: for surface tension liquid-gas: Maximal bubble pressure; for mass density: 100 kPa, Liquid, Vibrating tube method
[2] = refractive index (Na D-line) (dimensionless); wn = mass fraction of the nth substance listed; conditions: 100 kPa, Liquid, Standard Abbe refractometry

CCC[n+]1ccn(C)c1.N[C@@H](CO)C(=O)[O-] [1-methyl-3-propylimidazolium L-serinate] + O
Conditions | mass density [kg/m3] | refractive index | surface tension liquid-gas [mN/m]
[1], 298.15 K, w2 = 0.00636 | 1181.69 | – | –
[1], 298.15 K, w2 = 0.00641 | – | – | 50.2
[1], 298.15 K, w2 = 0.00785 | 1181.73 | – | –
[1], 298.15 K, w2 = 0.00791 | – | – | 50.8
[1], 298.15 K, w2 = 0.00939 | 1181.78 | – | –
[1], 298.15 K, w2 = 0.00942 | – | – | 51.7
[1], 298.15 K, w2 = 0.0109 | 1181.82 | – | –
[1], 298.15 K, w2 = 0.01091 | – | – | 52.5
[1], 298.15 K, w2 = 0.0124 | 1181.86 | – | –
[1], 298.15 K, w2 = 0.01241 | – | – | 53.2
[1], 303.15 K, w2 = 0.00636 | 1178.52 | – | –
[1], 303.15 K, w2 = 0.00641 | – | – | 49.9
[1], 303.15 K, w2 = 0.00785 | 1178.56 | – | –
[1], 303.15 K, w2 = 0.00791 | – | – | 50.5
[1], 303.15 K, w2 = 0.00939 | 1178.61 | – | –
[1], 303.15 K, w2 = 0.00942 | – | – | 51.4
[1], 303.15 K, w2 = 0.0109 | 1178.65 | – | –
[1], 303.15 K, w2 = 0.01091 | – | – | 52.1
[1], 303.15 K, w2 = 0.0124 | 1178.69 | – | –
[1], 303.15 K, w2 = 0.01241 | – | – | 52.9
[1], 308.15 K, w2 = 0.00636 | 1175.36 | – | –
[1], 308.15 K, w2 = 0.00641 | – | – | 49.6
[1], 308.15 K, w2 = 0.00785 | 1175.39 | – | –
[1], 308.15 K, w2 = 0.00791 | – | – | 50.2
[1], 308.15 K, w2 = 0.00939 | 1175.43 | – | –
[1], 308.15 K, w2 = 0.00942 | – | – | 50.9
[1], 308.15 K, w2 = 0.0109 | 1175.47 | – | –
[1], 308.15 K, w2 = 0.01091 | – | – | 51.8
[1], 308.15 K, w2 = 0.0124 | 1175.52 | – | –
[1], 308.15 K, w2 = 0.01241 | – | – | 52.5
[1], 313.15 K, w2 = 0.00636 | 1172.21 | – | –
[1], 313.15 K, w2 = 0.00641 | – | – | 49.2
[1], 313.15 K, w2 = 0.00785 | 1172.24 | – | –
[1], 313.15 K, w2 = 0.00791 | – | – | 49.9
[1], 313.15 K, w2 = 0.00939 | 1172.29 | – | –
[1], 313.15 K, w2 = 0.00942 | – | – | 50.5
[1], 313.15 K, w2 = 0.0109 | 1172.33 | – | –
[1], 313.15 K, w2 = 0.01091 | – | – | 51.4
[1], 313.15 K, w2 = 0.0124 | 1172.37 | – | –
[1], 313.15 K, w2 = 0.01241 | – | – | 52
[1], 318.15 K, w2 = 0.00636 | 1169.06 | – | –
[1], 318.15 K, w2 = 0.00641 | – | – | 48.8
[1], 318.15 K, w2 = 0.00785 | 1169.09 | – | –
[1], 318.15 K, w2 = 0.00791 | – | – | 49.5
[1], 318.15 K, w2 = 0.00939 | 1169.13 | – | –
[1], 318.15 K, w2 = 0.00942 | – | – | 50.1
[1], 318.15 K, w2 = 0.0109 | 1169.18 | – | –
[1], 318.15 K, w2 = 0.01091 | – | – | 50.9
[1], 318.15 K, w2 = 0.0124 | 1169.22 | – | –
[1], 318.15 K, w2 = 0.01241 | – | – | 51.6
[1], 323.15 K, w2 = 0.00636 | 1165.86 | – | –
[1], 323.15 K, w2 = 0.00641 | – | – | 48.5
[1], 323.15 K, w2 = 0.00785 | 1165.89 | – | –
[1], 323.15 K, w2 = 0.00791 | – | – | 49.2
[1], 323.15 K, w2 = 0.00939 | 1165.94 | – | –
[1], 323.15 K, w2 = 0.00942 | – | – | 49.8
[1], 323.15 K, w2 = 0.0109 | 1165.98 | – | –
[1], 323.15 K, w2 = 0.01091 | – | – | 50.6
[1], 323.15 K, w2 = 0.0124 | 1166.03 | – | –
[1], 323.15 K, w2 = 0.01241 | – | – | 51.2
[1], 328.15 K, w2 = 0.00636 | 1162.76 | – | –
[1], 328.15 K, w2 = 0.00641 | – | – | 48.2
[1], 328.15 K, w2 = 0.00785 | 1162.79 | – | –
[1], 328.15 K, w2 = 0.00791 | – | – | 48.8
[1], 328.15 K, w2 = 0.00939 | 1162.83 | – | –
[1], 328.15 K, w2 = 0.00942 | – | – | 49.5
[1], 328.15 K, w2 = 0.0109 | 1162.87 | – | –
[1], 328.15 K, w2 = 0.01091 | – | – | 50.2
[1], 328.15 K, w2 = 0.0124 | 1162.91 | – | –
[1], 328.15 K, w2 = 0.01241 | – | – | 50.8
[1], 333.15 K, w2 = 0.00636 | 1159.67 | – | –
[1], 333.15 K, w2 = 0.00641 | – | – | 47.8
[1], 333.15 K, w2 = 0.00785 | 1159.7 | – | –
[1], 333.15 K, w2 = 0.00791 | – | – | 48.5
[1], 333.15 K, w2 = 0.00939 | 1159.74 | – | –
[1], 333.15 K, w2 = 0.00942 | – | – | 49.1
[1], 333.15 K, w2 = 0.0109 | 1159.79 | – | –
[1], 333.15 K, w2 = 0.01091 | – | – | 49.7
[1], 333.15 K, w2 = 0.0124 | 1159.83 | – | –
[1], 333.15 K, w2 = 0.01241 | – | – | 50.4
[1], 338.15 K, w2 = 0.00636 | 1156.58 | – | –
[1], 338.15 K, w2 = 0.00641 | – | – | 47.5
[1], 338.15 K, w2 = 0.00785 | 1156.62 | – | –
[1], 338.15 K, w2 = 0.00791 | – | – | 48.2
[1], 338.15 K, w2 = 0.00939 | 1156.65 | – | –
[1], 338.15 K, w2 = 0.00942 | – | – | 48.7
[1], 338.15 K, w2 = 0.0109 | 1156.69 | – | –
[1], 338.15 K, w2 = 0.01091 | – | – | 49.3
[1], 338.15 K, w2 = 0.0124 | 1156.73 | – | –
[1], 338.15 K, w2 = 0.01241 | – | – | 50
[2], 298.15 K, w2 = 0.00614 | – | 1.5158 | –
[2], 298.15 K, w2 = 0.00766 | – | 1.5154 | –
[2], 298.15 K, w2 = 0.00917 | – | 1.5149 | –
[2], 298.15 K, w2 = 0.01069 | – | 1.5144 | –
[2], 298.15 K, w2 = 0.01217 | – | 1.514 | –
[2], 303.15 K, w2 = 0.00614 | – | 1.5145 | –
[2], 303.15 K, w2 = 0.00766 | – | 1.514 | –
[2], 303.15 K, w2 = 0.00917 | – | 1.5135 | –
[2], 303.15 K, w2 = 0.01069 | – | 1.5131 | –
[2], 303.15 K, w2 = 0.01217 | – | 1.5125 | –
[2], 308.15 K, w2 = 0.00614 | – | 1.5131 | –
[2], 308.15 K, w2 = 0.00766 | – | 1.5126 | –
[2], 308.15 K, w2 = 0.00917 | – | 1.5119 | –
[2], 308.15 K, w2 = 0.01069 | – | 1.5115 | –
[2], 308.15 K, w2 = 0.01217 | – | 1.5109 | –
[2], 313.15 K, w2 = 0.00614 | – | 1.5118 | –
[2], 313.15 K, w2 = 0.00766 | – | 1.5113 | –
[2], 313.15 K, w2 = 0.00917 | – | 1.5106 | –
[2], 313.15 K, w2 = 0.01069 | – | 1.5102 | –
[2], 313.15 K, w2 = 0.01217 | – | 1.5095 | –
[2], 318.15 K, w2 = 0.00614 | – | 1.5106 | –
[2], 318.15 K, w2 = 0.00766 | – | 1.5099 | –
[2], 318.15 K, w2 = 0.00917 | – | 1.5092 | –
[2], 318.15 K, w2 = 0.01069 | – | 1.5087 | –
[2], 318.15 K, w2 = 0.01217 | – | 1.5081 | –
[2], 323.15 K, w2 = 0.00614 | – | 1.5094 | –
[2], 323.15 K, w2 = 0.00766 | – | 1.5086 | –
[2], 323.15 K, w2 = 0.00917 | – | 1.5078 | –
[2], 323.15 K, w2 = 0.01069 | – | 1.5072 | –
[2], 323.15 K, w2 = 0.01217 | – | 1.5065 | –
[2], 328.15 K, w2 = 0.00614 | – | 1.5081 | –
[2], 328.15 K, w2 = 0.00766 | – | 1.5072 | –
[2], 328.15 K, w2 = 0.00917 | – | 1.5063 | –
[2], 328.15 K, w2 = 0.01069 | – | 1.5056 | –
[2], 328.15 K, w2 = 0.01217 | – | 1.505 | –
[2], 333.15 K, w2 = 0.00614 | – | 1.5068 | –
[2], 333.15 K, w2 = 0.00766 | – | 1.5058 | –
[2], 333.15 K, w2 = 0.00917 | – | 1.5049 | –
[2], 333.15 K, w2 = 0.01069 | – | 1.5042 | –
[2], 333.15 K, w2 = 0.01217 | – | 1.5035 | –
[2], 338.15 K, w2 = 0.00614 | – | 1.5054 | –
[2], 338.15 K, w2 = 0.00766 | – | 1.5044 | –
[2], 338.15 K, w2 = 0.00917 | – | 1.5036 | –
[2], 338.15 K, w2 = 0.01069 | – | 1.5028 | –
[2], 338.15 K, w2 = 0.01217 | – | 1.5021 | –
